From US8906853B2, “[N-Me-4-hydroxyleucine]-9-cyclosporin analogues for treatment and prevention of hepatitis C infection” (Enanta Pharmaceuticals, Inc., priority 2012, dated 2014)

What was measured:
[1] = system: HCV 1a genotype replicon (strain H77, Huh-1a7 cells); experiment: HCV replicon assay, qRT-PCR, genotype 1a replicon cell line (Huh-1a7); assay type: cell-based; conditions: HCV genotype 1a replicon, HCV RNA by qRT-PCR normalized to GAPDH RNA
Description: (§1) HCV replicon cell lines (kindly provided by R. Bartenschlager) isolated from colonies as described by Lohman et al. (Lohman et al. (1999) Science 285: 110-113, expressly incorporated by reference in its entirety) and used for all experiments. One of the HCV replicon cell lines (strain Con1, genotype 1b) has the nucleic acid sequence set forth in EMBL Accession No.: AJ242651, the coding sequence of which is from nucleotides 1801 to 8406. Another replicon cell line (strain H77, genotype 1a) was constructed as described by Yi et al. (Yi et al. (2004) Journal of Virology 78(15):7904-15). […]
(§2) EC50 values of single agent compounds were determined by HCV RNA detection using quantitative RT-PCR, according to the manufacturer's instructions, with a TAQMAN® One-Step RT-PCR Master Mix Reagents Kit (Cat# AB 4309169, Applied Biosystems) on an ABI Model 7500 thermocycler. EC50 values of combinations are similarly determined by HCV RNA detection using quantitative RT-PCR. The TAQMAN primers to use for detecting and quantifying HCV RNA obtained from Integrated DNA Technologies. HCV RNA is normalized to GAPDH RNA levels in drug-treated cells, which is detected and quantified using the Human GAPDH Endogenous Control Mix (Applied Biosystems, AB 4310884E). […] Chemical agent cytotoxicity is evaluated using an MTS assay according to the manufacturer's directions (Promega). […]

[2] = system: HCV 1b genotype replicon (strain Con1, SGR 11-7 cells); experiment: HCV replicon assay, qRT-PCR, genotype 1b replicon cell line (SGR 11-7); assay type: cell-based; conditions: HCV genotype 1b replicon, HCV RNA by qRT-PCR normalized to GAPDH RNA
Description: as §1, §2

Question: `CC(C)CCCCN1CCOCC1` [Example 1] was tested. Which EC50 ([1]; Hepatitis C virus) did it give?
Answer: < 200 nM

Question: And the EC50 ([2]; Hepatitis C virus)?
Answer: < 200 nM

Question: Which results are given for Allisporivir?
Answer: EC50 [1]: < 200 nM; EC50 [2]: < 200 nM
